Read-outs that look alike come from different tables or passages of the source.
Columns and labels:
[1] = test system: HT1080 (human fibrosarcoma cells); assay: MTT cancer cell growth inhibition; format: cell-based; conditions: Homo sapiens, HT-1080, 72 h, MTT, 72 hours incubation, read-out: GI50 HT1
Method in brief: (§1)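 MTT viability, 570 nm, GI50. Cells 1500/well; compound 72 h at final 10^−5–10^−10 M in triplicate.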

[2] = test system: A549 (human lung cancer cells); assay: MTT cancer cell growth inhibition; format: cell-based; conditions: Homo sapiens, A549, 72 h, MTT, 72 hours incubation, read-out: GI50 A54
Method in brief: as §1

[3] = test system: K562 (human leukemia cells); assay: MTT cancer cell growth inhibition; format: cell-based; conditions: Homo sapiens, K562, 72 h, MTT, 72 hours incubation, K562 cells; read-out: GI50 K562
Method in brief: as §1

[4] = test system: lncap (prostate cancer cells); assay: MTT cancer cell growth inhibition; format: cell-based; conditions: Homo sapiens, LNCaP, 72 h, MTT, 72 hours incubation, read-out: GI50 lnca
Method in brief: as §1

[5] = test system: KBM5-T315I (human chronic myelogenous leukemia); assay: MTT cancer cell growth inhibition; format: cell-based; conditions: Homo sapiens, 72 h, MTT, 72 hours incubation, KBM5-T315I cells; read-out: GI50 KBM5-T315I
Method in brief: as §1

[6] = test system: MDA-MB-231 (breast cancer cells); assay: MTT cancer cell growth inhibition; format: cell-based; conditions: Homo sapiens, MDA-MB-231, 72 h, read-out: GI50 MDA-MB-231, MTT, 72 hours incubation, MDA-MB-231 cells
Method in brief: as §1

[7] = test system: PANC-1 (Pac-1, human pancreatic cancer cells); assay: MTT cancer cell growth inhibition; format: cell-based; conditions: Homo sapiens, PANC-1, 72 h, MTT, 72 hours incubation, read-out: GI50 PAN
Method in brief: as §1

[8] = test system: SGC-7901 (human gastric cancer cells); assay: MTT cancer cell growth inhibition; format: cell-based; conditions: Homo sapiens, SGC-7901, 72 h, MTT, 72 hours incubation, SGC-7901 cells; read-out: GI50 SGC-7901
Method in brief: as §1

[9] = test system: Hela (human cervical cancer cells); assay: MTT cancer cell growth inhibition; format: cell-based; conditions: Homo sapiens, HeLa, 72 h, MTT, 72 hours incubation, read-out: GI50 Hela
Method in brief: as §1

[10] = test system: Huh-7 (human hepatoma cells); assay: MTT cancer cell growth inhibition; format: cell-based; conditions: Homo sapiens, Huh-7, 72 h, MTT, 72 hours incubation, Huh-7 cells; read-out: GI50 Huh-7
Method in brief: as §1

[11] = test system: U937 (human leukemia cells); assay: MTT cancer cell growth inhibition; format: cell-based; conditions: Homo sapiens, U-937, 72 h, MTT, 72 hours incubation, read-out: GI50 U93
Method in brief: as §1

[12] = test system: DU145 (human prostate cancer cells); assay: MTT cancer cell growth inhibition; format: cell-based; conditions: Homo sapiens, DU-145, 72 h, MTT, 72 hours incubation, read-out: GI50 Du1
Method in brief: as §1

[13] = test system: KBM-5 (human chronic myelogenous leukemia); assay: MTT cancer cell growth inhibition; format: cell-based; conditions: Homo sapiens, KBM5, 72 h, MTT, 72 hours incubation, KBM-5 cells; read-out: GI50 KBM-5
Method in brief: as §1

[14] = test system: MOLT-4 (human acute lymphoblastic leukemia cells); assay: MTT cancer cell growth inhibition; format: cell-based; conditions: Homo sapiens, MOLT-4, 72 h, MTT, 72 hours incubation, read-out: GI50 Mol
Method in brief: as §1

[15] = test system: Bel-7402 (human hepatoma cells); assay: MTT cancer cell growth inhibition; format: cell-based; conditions: Homo sapiens, Bel-7402, 72 h, MTT, 72 hours incubation, Bel-7402 cells; read-out: GI50 Bel-7402
Method in brief: as §1

[16] = test system: MCF-7 (human breast cancer cells); assay: MTT cancer cell growth inhibition; format: cell-based; conditions: Homo sapiens, MCF7, 72 h, 72 hours incubation, read-out: GI50 MCF
Method in brief: as §1

[17] = test system: HCC827 (human non-small cell lung cancer cells); assay: MTT cancer cell growth inhibition; format: cell-based; conditions: Homo sapiens, HCC827, 72 h, MTT, 72 hours incubation, HCC827 cells; read-out: GI50 HCC827
Method in brief: as §1

[18] = test system: N-87 (human gastric cancer cells); assay: MTT cancer cell growth inhibition; format: cell-based; conditions: Homo sapiens, 72 h, MTT, 72 hours incubation, N-87 cells; read-out: GI50 N-87
Method in brief: as §1

[19] = test system: BGC-823 (human gastric cancer cells); assay: MTT cancer cell growth inhibition; format: cell-based; conditions: Homo sapiens, BGC-823, 72 h, MTT, 72 hours incubation, read-out: GI50 BG
Method in brief: as §1

[20] = test system: H1975 (non-small cell lung adenocarcinoma); assay: MTT cancer cell growth inhibition; format: cell-based; conditions: Homo sapiens, NCI-H1975, 72 h, MTT, 72 hours incubation, H1975 cells; read-out: GI50 H1975
Method in brief: as §1

HDAC7 = target: T1, HDAC7 (Homo sapiens, UniProt Q8WUI4); assay: HDAC biochemical activity measurement (fluorescent substrate deacetylation);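 as to all read-outs here: fluorogenic deacetylation assay using acetyl-lysine substrate at 20 µM, enzyme and compound incubated 30 min at 37 °C, then developer added, fluorescence read at 360/460 nm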; conditions: for IC50 HDAC7: 37° C. 30 minutes
T1 sequence (Q8WUI4 1-952): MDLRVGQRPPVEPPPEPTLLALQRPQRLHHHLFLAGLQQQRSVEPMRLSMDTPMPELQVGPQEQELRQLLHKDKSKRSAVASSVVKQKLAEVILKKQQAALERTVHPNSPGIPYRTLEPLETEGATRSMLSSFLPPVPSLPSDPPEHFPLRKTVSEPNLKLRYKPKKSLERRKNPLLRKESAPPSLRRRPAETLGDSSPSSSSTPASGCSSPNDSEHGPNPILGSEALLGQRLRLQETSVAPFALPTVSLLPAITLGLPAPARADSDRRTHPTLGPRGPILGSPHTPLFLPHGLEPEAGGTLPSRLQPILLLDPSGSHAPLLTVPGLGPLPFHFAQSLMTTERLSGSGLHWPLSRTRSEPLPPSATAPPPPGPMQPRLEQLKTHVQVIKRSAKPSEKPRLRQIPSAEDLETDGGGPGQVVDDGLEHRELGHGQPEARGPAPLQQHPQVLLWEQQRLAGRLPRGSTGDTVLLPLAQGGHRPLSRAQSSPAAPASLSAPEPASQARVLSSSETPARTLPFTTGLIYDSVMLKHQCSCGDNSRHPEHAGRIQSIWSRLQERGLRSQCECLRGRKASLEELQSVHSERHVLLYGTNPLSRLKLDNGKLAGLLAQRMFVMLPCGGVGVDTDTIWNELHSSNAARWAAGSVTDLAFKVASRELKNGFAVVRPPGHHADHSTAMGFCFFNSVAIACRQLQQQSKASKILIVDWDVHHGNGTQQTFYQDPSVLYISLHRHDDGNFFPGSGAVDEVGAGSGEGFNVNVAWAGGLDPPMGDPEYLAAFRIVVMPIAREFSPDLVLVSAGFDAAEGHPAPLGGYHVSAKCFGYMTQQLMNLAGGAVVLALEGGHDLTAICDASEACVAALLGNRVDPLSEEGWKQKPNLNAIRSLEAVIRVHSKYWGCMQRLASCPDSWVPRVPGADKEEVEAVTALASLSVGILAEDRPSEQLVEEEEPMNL
Procedure: The chemical activity of the compound is determined according to the degree of deacetylation inhibition of the HDAC enzyme. This experiment measured the degree of deacetylation related to tumor proliferation and metastasis of HDAC1, HDAC2, HDAC3, HDAC8, HDAC11 five subtypes HDAC enzymes. After the substrate containing an acetylated lysine side chain and HDAC enzyme are labeled with a fluorescent label, the fluorescent substrate is de acetyl. The fluorescent labeled substrate is cleaved by the enzyme, and the fluorescent substance is released, which generates 460 nm emission light under the excitation of 360 nm light.
HDAC substrate was diluted with reaction buffer to 200M (reaction concentration of 20M), the HDAC enzyme was diluted to the appropriate concentration, then added different concentrations of the test compounds and acted at 37° C. 30 minutes, and then added the same volume of 2-times concentration substrate developing solution (developer), incubated at room temperature for 15 minutes. Finally, the last reading measured with a microplate plate reader, excitation light was 360 nm, the emitted light was 460 nm, data processing software was Prime 4, and the results are shown in Table 1.

| SMILES | GI50 ([1]; HT1080 cells) [nM] | GI50 ([2]; A549 cells) [nM] | GI50 [3] [nM] | GI50 ([4]; lncap cells) [nM] | GI50 [5] [nM] | GI50 [6] [nM] | GI50 ([7]; PANC-1 cells) [nM] | GI50 [8] [nM] | GI50 ([9]; Hela cells) [nM] | GI50 [10] [nM] | GI50 ([11]; U937 cells) [nM] | GI50 ([12]; DU145 cells) [nM] | GI50 [13] [nM] | GI50 ([14]; MOLT-4 cells) [nM] | GI50 [15] [nM] | GI50 ([16]; MCF-7 cells) [nM] | GI50 [17] [nM] | GI50 [18] [nM] | GI50 [20] [nM] | IC50 HDAC7 (HDAC7) | other results |
| --- | --- | --- | --- | --- | --- | --- | --- | --- | --- | --- | --- | --- | --- | --- | --- | --- | --- | --- | --- | --- | --- |
| C/C=C1\NC(=O)c2ccc(SCC)c(n2)CNC(=O)C[C@@H](/C=C/CCSC(=O)CCCCC)OC(=O)[C@H](C(C)C)NC1=O [Compound 255] | 60 | 30 | 56 | 50 | 37 | 23 | 40 | 48 | 10 | 45 | 20 | 40 | 32 | 50 | 35 | 80 | 57 | 51 | 68 | – | GI50 ([19]; BGC-823 cells): 30 nM; IC50 (μM) HDAC7 (HDAC7): no activity |
| C/C=C1\NC(=O)c2ccc(F)c(n2)CNC(=O)C[C@@H](/C=C/CCSC(C)=O)OC(=O)[C@H](C)NC1=O [Example 65] | – | – | 29 | – | 63 | 43 | – | 77 | – | 43 | – | – | 92 | – | 62 | – | 62 | 52 | 29 | no activity | GI50 [1]: 60 nM; GI50 [2]: 70 nM; GI50 [4]: 40 nM; GI50 [7]: 60 nM; GI50 [9]: 90 nM; GI50 [11]: 20 nM; GI50 [12]: 20 nM; GI50 [14]: 40 nM; GI50 [16]: 60 nM; GI50 [19]: 50 nM |
| C/C=C1\NC(=O)c2nc(ccc2SC)CNC(=O)C[C@@H](/C=C/CCSC(C)=O)OC(=O)[C@H](CCCCN)NC1=O [Compound 192] | 50 | 90 | 23 | 20 | 29 | 83 | 60 | 99 | 290 | 71 | 20 | 80 | 21 | 90 | 54 | 50 | 37 | 32 | 35 | no activity | GI50 ([19]; BGC-823 cells): 70 nM |
| C=C1NC(=O)c2cc(SC)cc(n2)CNC(=O)C[C@@H](/C=C/CCSC(C)=O)OC(=O)[C@H](C)NC1=O [Compound 211] | 40 | 40 | 19 | 30 | 28 | 85 | 70 | 71 | 60 | 24 | 40 | 60 | 31 | 30 | 21 | 70 | 55 | 31 | 73 | no activity | GI50 ([19]; BGC-823 cells): 70 nM |
| C/C=C1\NC(=O)c2ncc(SC)c(n2)CNC(=O)C[C@@H](/C=C/CCSC(C)=O)OC(=O)[C@H](C)NC1=O [Compound 219] | 70 | 30 | 84 | 60 | 39 | 34 | 80 | 63 | 90 | 49 | 70 | 50 | 42 | 80 | 82 | 60 | 39 | 75 | 33 | no activity | GI50 ([19]; BGC-823 cells): 50 nM |
| C/C=C1\NC(=O)c2nc(cc(SC)n2)CNC(=O)C[C@@H](/C=C/CCSC(C)=O)OC(=O)[C@H](C)NC1=O [Compound 218] | 20 | 30 | 36 | 50 | 43 | 27 | 50 | 53 | 80 | 21 | 60 | 50 | 21 | 90 | 62 | 40 | 37 | 65 | 38 | no activity | GI50 ([19]; BGC-823 cells): 60 nM |
| C/C=C1\NC(=O)c2ccc(F)c(n2)CNC(=O)C[C@@H](/C=C/CCSC(C)=O)OC(=O)[C@H](CC)NC1=O [Example 59] | – | – | 38 | – | 74 | 37 | – | 59 | – | 37 | – | – | 61 | – | 82 | – | 82 | 59 | 39 | no activity | GI50 [1]: 80 nM; GI50 [2]: 50 nM; GI50 [4]: 30 nM; GI50 [7]: 80 nM; GI50 [9]: 60 nM; GI50 [11]: 30 nM; GI50 [12]: 30 nM; GI50 [14]: 30 nM; GI50 [16]: 70 nM; GI50 [19]: 50 nM |

— patent US10065990B2, “Cyclic peptide compound, and preparation method, pharmaceutical composition and use thereof” (HANGZHOU GUANYU BIO-MEDICAL CO., LTD, priority 2013, dated 2018)
